Here are results for 19 compounds from patent US8946223B2, “Substituted hydroxamic acids and uses thereof” (Millennium Pharmaceuticals, Inc., priority 2010, dated 2015).

For orientation: IC50 means the concentration that gives 50% inhibition. A high value points to weaker potency.

One assay has as its target T1, purified human HDAC6 (Homo sapiens, UniProt Q9UBN7).
T1 construct: purchased BPS Bioscience 5006
T1 sequence (Q9UBN7 1-1215): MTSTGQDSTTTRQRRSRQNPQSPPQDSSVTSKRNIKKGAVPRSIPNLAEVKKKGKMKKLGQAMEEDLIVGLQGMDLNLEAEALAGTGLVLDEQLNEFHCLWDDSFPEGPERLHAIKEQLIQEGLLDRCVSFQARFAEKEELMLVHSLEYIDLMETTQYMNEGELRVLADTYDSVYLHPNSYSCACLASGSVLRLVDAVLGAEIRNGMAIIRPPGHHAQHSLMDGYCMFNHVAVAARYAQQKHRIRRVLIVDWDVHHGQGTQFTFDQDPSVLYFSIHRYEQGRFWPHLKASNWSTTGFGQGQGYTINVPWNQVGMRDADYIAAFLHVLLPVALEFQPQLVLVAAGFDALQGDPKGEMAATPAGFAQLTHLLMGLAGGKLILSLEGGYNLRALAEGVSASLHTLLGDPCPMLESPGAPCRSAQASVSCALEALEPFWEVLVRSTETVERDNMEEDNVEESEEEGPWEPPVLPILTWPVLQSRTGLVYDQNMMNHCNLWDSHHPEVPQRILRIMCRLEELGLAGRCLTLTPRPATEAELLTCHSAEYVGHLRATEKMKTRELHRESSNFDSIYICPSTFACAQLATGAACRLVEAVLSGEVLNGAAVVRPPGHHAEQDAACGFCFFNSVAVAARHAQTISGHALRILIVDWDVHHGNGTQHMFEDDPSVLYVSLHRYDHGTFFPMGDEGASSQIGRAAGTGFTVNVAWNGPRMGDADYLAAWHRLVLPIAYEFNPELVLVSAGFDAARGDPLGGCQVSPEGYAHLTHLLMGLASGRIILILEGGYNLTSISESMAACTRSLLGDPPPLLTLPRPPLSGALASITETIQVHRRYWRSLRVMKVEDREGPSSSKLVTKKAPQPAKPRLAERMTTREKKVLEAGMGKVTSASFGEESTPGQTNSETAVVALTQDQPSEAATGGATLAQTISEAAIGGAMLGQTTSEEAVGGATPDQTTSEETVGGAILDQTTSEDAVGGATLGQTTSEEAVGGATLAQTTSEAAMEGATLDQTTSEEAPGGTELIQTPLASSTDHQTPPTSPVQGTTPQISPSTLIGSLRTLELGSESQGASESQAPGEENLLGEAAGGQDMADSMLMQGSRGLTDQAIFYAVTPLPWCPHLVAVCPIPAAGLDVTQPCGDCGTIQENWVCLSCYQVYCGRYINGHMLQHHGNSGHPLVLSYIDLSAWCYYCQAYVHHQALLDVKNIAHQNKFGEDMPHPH
Briefly: HDAC6 enzyme assay. Type of assay: biochemical. Conditions: bin: less than 100 nM. How it is done:
To measure the inhibition of HDAC6 activity, purified human HDAC6 (BPS Bioscience; Cat. No. 5006) is incubated with substrate Ac-Arg-Gly-Lys(Ac)-AMC peptide (Bachem Biosciences; Cat. No. I-1925) for 1 hour at 30° C. in the presence of test compounds or vehicle DMSO control. The reaction is stopped with the HDAC inhibitor trichostatin A (Sigma; Cat. No. T8552) and the amount of Arg-Gly-Lys-AMC generated is quantitated by digestion with trypsin (Sigma; Cat. No. T1426) and subsequent measurement of the amount of AMC released using a fluorescent plate reader (Pherastar; BMG Technologies) set at Ex 340 nm and Em 460 nm. Concentration response curves are generated by calculating the fluorescence increase in test compound-treated samples relative to DMSO-treated controls, and enzyme inhibition (IC50) values are determined from those curves.
As for `Cn1ccc2cc(C(=O)N3CCn4cc(C(=O)NO)cc4C3)ccc21` [Compound I-89, N-hydroxy-2-[(1-methyl-1H-indol-5-yl)carbonyl]-1,2,3,4-tetrahydropyrrolo[1,2-a]pyrazine-7-carboxamide], the IC50 is < 0.1 µM. As to `Cn1c(C(=O)N2CCn3cc(C(=O)NO)cc3C2)cc(Cl)c1Cl` [Compound I-91, 2-[(4,5-dichloro-1-methyl-1H-pyrrol-2-yl)carbonyl]-N-hydroxy-1,2,3,4-tetrahydropyrrolo[1,2-a]pyrazine-7-carboxamide], the IC50 was < 0.1 µM. `Cc1cc(C(=O)N2CCn3cc(C(=O)NO)cc3C2)c(C)[nH]1` [Compound I-94, 2-[(2,5-dimethyl-1H-pyrrol-3-yl)carbonyl]-N-hydroxy-1,2,3,4-tetrahydropyrrolo[1,2-a]pyrazine-7-carboxamide]: the IC50 is < 0.1 µM. The same measure, in the same setting: the figure for `Cc1c(C(=O)N2CCn3cc(C(=O)NO)cc3C2)cnn1-c1ccccc1` [Compound I-99, N-hydroxy-2-[(5-methyl-1-phenyl-1H-pyrazol-4-yl)carbonyl]-1,2,3,4-tetrahydropyrrolo[1,2-a]pyrazine-7-carboxamide] is < 0.1 µM; for `O=C(NO)c1cn2c(n1)CN(C(=O)Nc1ccccc1)CC2` [Compound I-116, N2-hydroxy-N7-phenyl-5,6-dihydroimidazo[1,2-a]pyrazine-2,7(8H)-dicarboxamide] it is < 0.1 µM; for `Cc1onc(-c2ccccc2)c1CN1CCn2cc(C(=O)NO)cc2C1=O` [Compound I-197, N-hydroxy-2-[(5-methyl-3-phenylisoxazol-4-yl)methyl]-1-oxo-1,2,3,4-tetrahydropyrrolo[1,2-a]pyrazine-7-carboxamide] it is < 0.1 µM. `O=C(NO)c1cc2n(c1)CCN(Cc1ccc(C(F)(F)F)cc1)C2=O` [Compound I-240, N-hydroxy-1-oxo-2-[4-(trifluoromethl)benzyl]-1,2,3,4-tetrahydropyrrolo[1,2-a]pyrazine-7-carboxamide]: the IC50 is < 0.1 µM.

Staying with this assay, now noted: bins: greater than 1 μM and less than 10 μM; greater than 10 μM.
As to `Cc1nc(CC(=O)N2CCn3nc(C(=O)NO)cc3C2)cs1` [Compound I-90, N-hydroxy-5-[(2-methyl-1,3-thiazol-4-yl)acetyl]-4,5,6,7-tetrahydropyrazolo[1,5-a]pyrazine-2-carboxamide], the IC50 lay within 1 to 10 µM. Same read-out and setting: under `CCc1cc(C(=O)N2CCCn3cc(C(=O)NO)cc3C2)n(C)n1` [Compound I-95, 2-[(3-ethyl-1-methyl-1H-pyrazol-5-yl)carbonyl]-N-hydroxy-2,3,4,5-tetrahydro-1H-pyrrolo[1,2-a][1,4]diazepine-8-carboxamide] stands 1 to 10 µM; under `O=C(NO)c1cc2n(c1)CCCN(C(=O)c1csc3ccccc13)C2` [Compound I-96, 2-(1-benzothien-3-ylcarbonyl)-N-hydroxy-2,3,4,5-tetrahydro-1H-pyrrolo[1,2-a][1,4]diazepine-8-carboxamide], 1 to 10 µM. The same measure, in the same setting: the figure for `O=C(NO)c1cc2n(n1)CCCN(C(=O)c1cc3ccccc3s1)C2` [Compound I-98, 5-(1-benzothien-2-ylcarbonyl)-N-hydroxy-5,6,7,8-tetrahydro-4H-pyrazolo[1,5-a][1,4]diazepine-2-carboxamide] is 1 to 10 µM; for `Cn1c(C(=O)N2CCCn3nc(C(=O)NO)cc3C2)cc2ccccc21` [Compound I-105, N-hydroxy-5-[(1-methyl-1H-indol-2-yl)carbonyl]-5,6,7,8-tetrahydro-4H-pyrazolo[1,5-a][1,4]diazepine-2-carboxamide] it is 1 to 10 µM; for `O=C(NO)c1cc2n(n1)CCN(C(=O)CCc1ccccc1)C2` [Compound I-106, N-hydroxy-5-(3-phenylpropanoyl)-4,5,6,7-tetrahydropyrazolo[1,5-a]pyrazine-2-carboxamide] it is 1 to 10 µM. The compound `Cc1c(C(=O)N2CCCn3nc(C(=O)NO)cc3C2)oc2ccccc12` [Compound I-108, N-hydroxy-5-[(3-methyl-1-benzofuran-2-yl)carbonyl]-5,6,7,8-tetrahydro-4H-pyrazolo[1,5-a][1,4]diazepine-2-carboxamide] registered an IC50 of 1 to 10 µM. Same read-out and setting: the figure for `O=C(NO)c1cc2n(n1)CCN(CCCn1cccc1)C2=O` [Compound I-109, N-hydroxy-4-oxo-5-[3-(1H-pyrrol-1-yl)propyl]-4,5,6,7-tetrahydropyrazolo[1,5-a]pyrazine-2-carboxamide] is 1 to 10 µM. As for `CCc1cccc(CC)c1NC(=O)N1CCn2cc(C(=O)NO)nc2C1` [Compound I-115, N7-(2,6-diethylphenyl)-N2-hydroxy-5,6-dihydroimidazo[1,2-a]pyrazine-2,7(8H)-dicarboxamide], the IC50 was 1 to 10 µM. Same read-out and setting: under `CCC(C)NC(=O)N1CCn2cc(C(=O)NO)nc2C1` (stereo not shown) [Compound I-118, N7-(sec-butyl)-N2-hydroxy-5,6-dihydroimidazo[1,2-a]pyrazine-2,7(8H)-dicarboxamide] stands 1 to 10 µM; under `Cc1onc(-c2ccccc2)c1NC(=O)N1CCn2cc(C(=O)NO)nc2C1` [Compound I-122, N2-hydroxy-N7-(5-methyl-3-phenylisoxazol-4-yl)-5,6-dihydroimidazo[1,2-a]pyrazine-2,7(8H)-dicarboxamide], 1 to 10 µM; under `O=C(NO)c1cn2c(n1)CN(C(=O)NCc1ccccc1)CC2` [Compound I-123, N7-benzyl-N2-hydroxy-5,6-dihydroimidazo[1,2-a]pyrazine-2,7(8H)-dicarboxamide], 1 to 10 µM.
